Test results taken from ChEMBL document CHEMBL4390659, “Molecular hybridization approach for phenothiazine incorporated 1,2,3-triazole hybrids as promising antimicrobial agents: Design, synthesis, molecular docking and in silico ADME studies” (Eur J Med Chem, 2019).
Converted amounts (≈) assume the structure as drawn.

Key:
[1] = test system: Mycobacterium tuberculosis; assay: Antibacterial activity against Mycobacterium tuberculosis H37Rv infected in Swiss albino mouse assessed as log reduction in bacterial burden in spleen at 26 mg/kg, po administered via gavage starting from 6 weeks post infection measured after 3 to 4 weeks co-treated with rifampicin; assay type: functional
[2] = test system: Mycobacterium tuberculosis; assay: Antibacterial activity against Mycobacterium tuberculosis H37Rv infected in Swiss albino mouse assessed as log reduction in bacterial burden in spleen at 26 mg/kg, po administered via gavage starting from 6 weeks post infection measured after 3 to 4 weeks co-treated with isoniazid; assay type: functional
[3] = test system: Mycobacterium tuberculosis; assay: Antibacterial activity against Mycobacterium tuberculosis H37Rv infected in Swiss albino mouse assessed as log reduction in bacterial burden in lungs at 26 mg/kg, po administered via gavage starting from 6 weeks post infection measured after 3 to 4 weeks co-treated with rifampicin; assay type: functional
[4] = test system: Mycobacterium tuberculosis; assay: Antibacterial activity against Mycobacterium tuberculosis H37Rv infected in Swiss albino mouse assessed as log reduction in bacterial burden in lungs at 26 mg/kg, po administered via gavage starting from 6 weeks post infection measured after 3 to 4 weeks co-treated with isoniazid; assay type: functional
[5] = test system: Staphylococcus aureus; assay: Antibacterial activity against Staphylococcus aureus incubated for 24 hrs by agar dilution method; assay type: functional
[6] = test system: Pseudomonas aeruginosa; assay: Antibacterial activity against Pseudomonas aeruginosa incubated for 24 hrs by agar dilution method; assay type: functional
[7] = test system: Vero; assay: Cytotoxicity against African green monkey Vero cells assessed as reduction in cell viability incubated for 72 hrs by MTT assay; assay type: cell-based; conditions: Chlorocebus sabaeus
[8] = test system: Mycobacterium tuberculosis; assay: Potency index, ratio of pyrazinamide MIC to test compound MIC against Mycobacterium tuberculosis H37Rv ATCC 27294; assay type: functional
[9] = test system: Mycobacterium tuberculosis; assay: Potency index, ratio of streptomycin MIC to test compound MIC against Mycobacterium tuberculosis H37Rv ATCC 27294; assay type: functional
[10] = test system: Mycobacterium tuberculosis; assay: Potency index, ratio of ciprofloxacin MIC to test compound MIC against Mycobacterium tuberculosis H37Rv ATCC 27294; assay type: functional
[11] = test system: Mycobacterium tuberculosis; assay: Antibacterial activity against Mycobacterium tuberculosis H37Rv ATCC 27294 assessed as reduction in mycobacterial growth incubated for 5 days by MABA method; assay type: functional; conditions: H37Rv ATCC 27294, 120 h
[12] = test system: Escherichia coli; assay: Antibacterial activity against Escherichia coli incubated for 24 hrs by agar dilution method; assay type: functional
[13] = Cytotoxicity against African green monkey Vero cells assessed as cell growth inhibition at 6.25 ug/ml incubated for 72 hrs by MTT assay relative to control; assay type: cell-based; conditions: chlorocebus sabaeus, read-out: GI
[14] = Selectivity index, ratio of IC50 for African green monkey Vero cells to MIC for Mycobacterium tuberculosis H37Rv ATCC 27294; assay type: toxicity; conditions: read-out: Selectivity Index

Row | SMILES | Activity [1] [log10CFU] | Activity [2] [log10CFU] | Activity [3] [log10CFU] | Activity [4] [log10CFU] | MIC [5] [µg/mL] | MIC [6] [µg/mL] | IC50 [7] [µg/mL] | Ratio [8] | Ratio [9] | Ratio [10] | MIC [11] | MIC [12] [µg/mL] | inhibition at 72 h, 6.25 ug/ml [13] [%] | selectivity ratio [14]
1 | CSc1ccc2c(c1)N(CCC1CCCCN1C)c1ccccc1S2 (centres undefined) [THIORIDAZINE] | >1 | >1 | >1 | >1 | – | – | – | – | – | – | – | – | – | –
2 | N#Cc1ccc(Cn2cc(CN3c4ccc(/C=N/NC(=O)c5ccncc5)cc4Sc4ccc(C(F)(F)F)cc43)nn2)cc1 | – | – | – | – | 50 (≈ 81.9 µM) | 100 (≈ 164 µM) | 1480 (≈ 2420 µM) | 2 | 4 | 4 | 2.62 µM | 50 (≈ 81.9 µM) | 7.14 | 207
3 | N#Cc1ccc(Cn2cc(CN3c4ccc(/C=N/NC(=O)c5ccc(F)cc5)cc4Sc4ccc(C(F)(F)F)cc43)nn2)cc1 | – | – | – | – | 6.25 (≈ 9.96 µM) | 12.5 (≈ 19.9 µM) | 647 (≈ 1030 µM) | 2 | 4 | 4 | 2.55 µM | 12.5 (≈ 19.9 µM) | 8.42 | 76.8
4 | COc1ccc(Cn2cc(CN3c4ccccc4Sc4ccccc43)nn2)cc1 | – | – | – | – | 25 (≈ 62.4 µM) | 50 (≈ 125 µM) | 6040 (≈ 15100 µM) | 2 | 4 | 4 | 1.6 µg/mL | 25 (≈ 62.4 µM) | 7.57 | 797
5 | N#Cc1ccc(Cn2cc(CN3c4ccccc4Sc4cc(/C=N/NC(=O)c5cnccn5)ccc43)nn2)cc1 | – | – | – | – | 50 (≈ 92 µM) | 100 (≈ 184 µM) | 2400 (≈ 4420 µM) | 2 | 4 | 4 | 2.94 µM | 50 (≈ 92 µM) | 12.3 | 195
6 | N#Cc1ccc(Cn2cc(CN3c4ccccc4Sc4ccccc43)nn2)cc1 | – | – | – | – | 6.25 (≈ 15.8 µM) | 12.5 (≈ 31.6 µM) | 1320 (≈ 3340 µM) | 2 | 4 | 4 | 1.6 µg/mL | 12.5 (≈ 31.6 µM) | 11.1 | 119
7 | N#Cc1ccc(Cn2cc(CN3c4ccccc4Sc4cc(/C=N/NC(=O)c5ccc([N+](=O)[O-])cc5)ccc43)nn2)cc1 | – | – | – | – | 25 (≈ 42.6 µM) | 50 (≈ 85.2 µM) | 693 (≈ 1180 µM) | 2 | 4 | 4 | 2.72 µM | 50 (≈ 85.2 µM) | 7.57 | 91.5
8 | N#Cc1ccc(Cn2cc(CN3c4ccc(/C=N/NC(=O)c5cccnc5)cc4Sc4ccc(C(F)(F)F)cc43)nn2)cc1 | – | – | – | – | 50 (≈ 81.9 µM) | 100 (≈ 164 µM) | 845 (≈ 1380 µM) | 2 | 4 | 4 | 2.62 µM | 100 (≈ 164 µM) | 7.32 | 115
9 | N#Cc1ccc(Cn2cc(CN3c4ccccc4Sc4ccc(C(F)(F)F)cc43)nn2)cc1 | – | – | – | – | – | – | 2080 (≈ 4500 µM) | 2 | 4 | 4 | 1.6 µg/mL | – | 5 | 417
10 | O=[N+]([O-])c1ccc(Cn2cc(CN3c4ccccc4Sc4ccccc43)nn2)cc1 | – | – | – | – | 50 (≈ 120 µM) | 100 (≈ 241 µM) | 484 (≈ 1160 µM) | 2 | 4 | 4 | 1.6 µg/mL | 50 (≈ 120 µM) | 11.4 | 42.5
11 | N#Cc1ccc(Cn2cc(CN3c4ccccc4Sc4cc(/C=N/NC(=O)c5ccccc5)ccc43)nn2)cc1 | – | – | – | – | 12.5 (≈ 23.1 µM) | 25 (≈ 46.2 µM) | 434 (≈ 802 µM) | 2 | 4 | 4 | 2.95 µM | 25 (≈ 46.2 µM) | 13.4 | 32.3
12 | N#Cc1ccc(Cn2cc(CN3c4ccc(/C=N/NC(=O)c5ccc([N+](=O)[O-])cc5)cc4Sc4ccc(C(F)(F)F)cc43)nn2)cc1 | – | – | – | – | 25 (≈ 38.2 µM) | 50 (≈ 76.4 µM) | 1130 (≈ 1720 µM) | 2 | 4 | 4 | 2.44 µM | 50 (≈ 76.4 µM) | 8.91 | 126
13 | Cc1ccc(C(=O)N/N=C/c2ccc3c(c2)Sc2ccc(C(F)(F)F)cc2N3Cc2cn(Cc3ccc(C#N)cc3)nn2)cc1 | – | – | – | – | 25 (≈ 40.1 µM) | 50 (≈ 80.2 µM) | 1570 (≈ 2510 µM) | 2 | 4 | 4 | 2.56 µM | 50 (≈ 80.2 µM) | 6.28 | 250
14 | N#Cc1ccc(Cn2cc(CN3c4ccccc4Sc4cc(/C=N/NC(=O)c5ccc(F)cc5)ccc43)nn2)cc1 | – | – | – | – | 6.25 (≈ 11.2 µM) | 12.5 (≈ 22.3 µM) | 758 (≈ 1350 µM) | 2 | 4 | 4 | 2.85 µM | 12.5 (≈ 22.3 µM) | 11.4 | 66.3
15 | N#Cc1ccc(Cn2cc(CN3c4ccc(/C=N/NC(=O)c5cnccn5)cc4Sc4ccc(C(F)(F)F)cc43)nn2)cc1 | – | – | – | – | 50 (≈ 81.8 µM) | 100 (≈ 164 µM) | 2110 (≈ 3450 µM) | 2 | 4 | 4 | 2.61 µM | 50 (≈ 81.8 µM) | 11.6 | 183
16 | Fc1ccccc1Cn1cc(CN2c3ccccc3Sc3ccccc32)nn1 | – | – | – | – | 12.5 (≈ 32.2 µM) | 25 (≈ 64.4 µM) | 924 (≈ 2380 µM) | 2 | 4 | 4 | 1.6 µg/mL | 12.5 (≈ 32.2 µM) | 3.33 | 278
17 | Cc1ccc(C(=O)N/N=C/c2ccc3c(c2)Sc2ccccc2N3Cc2cn(Cc3ccc(C#N)cc3)nn2)cc1 | – | – | – | – | 25 (≈ 45 µM) | 100 (≈ 180 µM) | 456 (≈ 821 µM) | – | 4 | 4 | 2.87 µM | 50 (≈ 90 µM) | 10.6 | 42.9
18 | N#Cc1ccc(Cn2cc(CN3c4ccccc4Sc4cc(/C=N/NC(=O)c5ccncc5)ccc43)nn2)cc1 | – | – | – | – | 12.5 (≈ 23 µM) | 25 (≈ 46.1 µM) | 1300 (≈ 2390 µM) | 2 | 4 | 4 | 2.94 µM | 25 (≈ 46.1 µM) | 5.13 | 253
19 | N#Cc1ccc(Cn2cc(CN3c4ccccc4Sc4cc(/C=N/NC(=O)c5cccnc5)ccc43)nn2)cc1 | – | – | – | – | 12.5 (≈ 23 µM) | 50 (≈ 92.1 µM) | 1610 (≈ 2970 µM) | – | 4 | 4 | 2.94 µM | 25 (≈ 46.1 µM) | 8.42 | 192
